Values of other authors as cited in EP0349514A1, “Prolonged-release pharmaceutical composition containing erythromycine, its preparation and its use” (priority 1988, dated 1990).

Conditions: plasma

CC[C@H]1OC(=O)[C@H](C)[C@@H](O[C@H]2C[C@@](C)(OC)[C@@H](O)[C@H](C)O2)[C@H](C)[C@@H](O[C@@H]2O[C@H](C)C[C@H](N(C)C)[C@H]2O)[C@](C)(O)C[C@@H](C)C(=O)[C@H](C)[C@@H](O)[C@]1(C)O [érythromycine]
temps de demi-vie plasmatique t 1/2: 1,6 h
